According to ChEMBL document CHEMBL5728472, “Triazolopyrimidine, triazolopyridine compounds, and the composition thereof for treating PRC2-mediated diseases” (2021):

Target: Histone-binding protein RBBP4/Histone-lysine N-methyltransferase EZH2/Polycomb protein EED/Polycomb protein SUZ12 (Homo sapiens, UniProt O75530+Q09028+Q15022+Q15910)
Assay: TR-FRET Assay: The TR-FRET method was used to measure the PRC2 enzyme activity. First, the enzyme was mixed with compounds at different concentrations and incubated for 30 min at room temperature. The biotin-labeled histone H3 peptide substrate and the cofactor S-adenosylmethionine (SAM) were added to initiate the enzymatic reaction. After reaction was performed at room temperature for 4 hour, Acceptor and Donor were added and incubated for half an hour. The multifunctional microplate reader EnVision (Perkin Elmer Inc.) was used to detect the fluorescence signal.
Assay type: protein-complex assay

Histone-binding protein RBBP4/Histone-lysine N-methyltransferase EZH2/Polycomb protein EED/Polycomb protein SUZ12, sequence (Q15910 whole entry): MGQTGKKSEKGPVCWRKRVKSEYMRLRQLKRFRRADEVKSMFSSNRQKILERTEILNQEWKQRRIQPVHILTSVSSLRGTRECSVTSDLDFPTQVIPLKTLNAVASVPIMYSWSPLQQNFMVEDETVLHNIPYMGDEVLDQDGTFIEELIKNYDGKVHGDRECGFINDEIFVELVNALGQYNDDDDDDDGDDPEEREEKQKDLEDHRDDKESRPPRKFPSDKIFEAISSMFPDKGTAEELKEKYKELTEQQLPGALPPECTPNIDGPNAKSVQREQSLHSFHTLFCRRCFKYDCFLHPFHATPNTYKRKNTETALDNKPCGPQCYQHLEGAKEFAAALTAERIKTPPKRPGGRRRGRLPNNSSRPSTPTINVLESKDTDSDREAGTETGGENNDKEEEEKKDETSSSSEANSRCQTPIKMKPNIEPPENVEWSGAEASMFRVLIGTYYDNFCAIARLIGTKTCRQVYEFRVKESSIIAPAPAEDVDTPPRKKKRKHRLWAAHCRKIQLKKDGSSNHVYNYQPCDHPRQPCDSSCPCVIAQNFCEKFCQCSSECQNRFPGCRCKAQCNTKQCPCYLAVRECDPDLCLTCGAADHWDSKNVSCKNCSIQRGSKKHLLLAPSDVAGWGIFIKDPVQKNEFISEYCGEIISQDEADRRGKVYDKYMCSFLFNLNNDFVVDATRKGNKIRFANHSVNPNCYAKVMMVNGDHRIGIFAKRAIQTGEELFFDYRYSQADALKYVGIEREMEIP
Histone-binding protein RBBP4/Histone-lysine N-methyltransferase EZH2/Polycomb protein EED/Polycomb protein SUZ12, sequence (O75530 whole entry): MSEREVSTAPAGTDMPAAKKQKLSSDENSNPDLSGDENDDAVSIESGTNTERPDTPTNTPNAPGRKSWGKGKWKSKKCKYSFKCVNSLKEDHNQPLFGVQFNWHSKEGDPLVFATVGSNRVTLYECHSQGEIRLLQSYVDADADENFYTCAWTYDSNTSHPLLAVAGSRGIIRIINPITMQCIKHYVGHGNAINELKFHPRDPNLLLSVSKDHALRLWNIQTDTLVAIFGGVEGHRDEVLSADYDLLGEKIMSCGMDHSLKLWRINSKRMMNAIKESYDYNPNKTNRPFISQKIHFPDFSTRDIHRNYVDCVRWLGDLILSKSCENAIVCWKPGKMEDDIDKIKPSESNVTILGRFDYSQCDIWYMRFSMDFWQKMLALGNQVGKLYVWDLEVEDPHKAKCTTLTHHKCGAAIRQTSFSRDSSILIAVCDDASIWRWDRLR
Histone-binding protein RBBP4/Histone-lysine N-methyltransferase EZH2/Polycomb protein EED/Polycomb protein SUZ12, sequence (Q15022 whole entry): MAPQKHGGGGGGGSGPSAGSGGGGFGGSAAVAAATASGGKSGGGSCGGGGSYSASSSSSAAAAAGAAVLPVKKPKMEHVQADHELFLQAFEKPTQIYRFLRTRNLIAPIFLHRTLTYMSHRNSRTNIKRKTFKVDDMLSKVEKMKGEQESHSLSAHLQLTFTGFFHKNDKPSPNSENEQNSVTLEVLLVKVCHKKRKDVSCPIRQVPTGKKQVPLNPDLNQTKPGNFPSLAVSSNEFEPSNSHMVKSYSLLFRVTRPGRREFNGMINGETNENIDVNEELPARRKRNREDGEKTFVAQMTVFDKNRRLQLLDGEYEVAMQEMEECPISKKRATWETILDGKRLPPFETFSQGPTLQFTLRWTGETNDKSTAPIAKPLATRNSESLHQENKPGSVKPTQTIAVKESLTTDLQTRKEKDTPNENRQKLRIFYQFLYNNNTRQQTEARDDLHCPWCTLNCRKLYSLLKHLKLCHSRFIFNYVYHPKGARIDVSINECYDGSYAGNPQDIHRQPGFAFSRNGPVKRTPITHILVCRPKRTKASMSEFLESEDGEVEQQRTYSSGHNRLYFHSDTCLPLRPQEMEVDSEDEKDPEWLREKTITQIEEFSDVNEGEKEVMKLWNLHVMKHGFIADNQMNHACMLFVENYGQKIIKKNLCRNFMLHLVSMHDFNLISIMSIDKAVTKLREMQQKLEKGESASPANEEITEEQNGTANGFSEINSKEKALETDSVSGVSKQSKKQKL
Histone-binding protein RBBP4/Histone-lysine N-methyltransferase EZH2/Polycomb protein EED/Polycomb protein SUZ12, sequence (Q09028 whole entry): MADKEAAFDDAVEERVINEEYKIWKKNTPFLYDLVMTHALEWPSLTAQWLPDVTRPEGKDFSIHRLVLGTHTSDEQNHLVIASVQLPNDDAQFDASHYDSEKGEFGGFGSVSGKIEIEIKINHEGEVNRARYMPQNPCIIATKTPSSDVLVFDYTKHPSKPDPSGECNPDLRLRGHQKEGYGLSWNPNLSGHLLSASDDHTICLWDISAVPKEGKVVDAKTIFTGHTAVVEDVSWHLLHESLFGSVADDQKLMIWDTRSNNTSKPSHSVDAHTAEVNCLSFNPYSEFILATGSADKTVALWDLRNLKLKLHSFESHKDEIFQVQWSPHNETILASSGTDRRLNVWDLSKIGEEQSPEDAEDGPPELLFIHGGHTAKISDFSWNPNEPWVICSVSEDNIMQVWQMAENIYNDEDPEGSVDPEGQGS

SMILES | IC50 [nM]
Fc1ccc2c(c1CNc1ncc(C3=CCNCC3)c3nncn13)CCO2 | 218
COC(=O)N1CC=C(c2cnc(NCc3c(F)ccc4c3CCO4)n3cnnc23)CC1 | 2.5
